# Results: patent US11339171B2, “MDM2 inhibitors” (Gan & Lee Pharmaceuticals, priority 2017, dated 2022)
# How the values were obtained:
# [1] = biological target: T1, MDM2 (Homo sapiens, UniProt Q00987); assay: Inhibition test of MDM2-P53 (GST-MDM2, Biotin-P53, Anti-GST-Tb, SA-XL665); assay type: binding; settings: for inhibitory effect on MDM2 compared with positive control compound HDM201: labels are Example numbers, the compounds with S-configuration are meant
# T1 construct: made in house
# How it was run: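 HTRF-type assay using 4 nM GST-MDM2 (final), Biotin-P53, SA-XL665 and anti-GST-Tb in PBS with 0.1% BSA, 5 mM DTT and 1 mM AEBSF. Compounds in 5-fold serial dilutions over twelve points; incubation 90 min at 25° C with shaking before plate-reader read-out.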
# [2] = tested on: human osteosarcoma cell line SJSA-1; assay: Inhibition of proliferation of human osteosarcoma cell line SJSA-1 (DAPI staining, In Cell Analyzer); settings: for IC50: Homo sapiens, SJSA-1, 72 h, read-out: IC50 (nM), inhibitory activity on proliferation of human osteosarcoma cell line SJSA-1, SJSA-1, incubated 72 h; for inhibitory effect on human osteosarcoma cell line SJSA-1 compared with positive control compound HDM201: labels are Example numbers, the compounds with S-configuration are meant
# T1 sequence (Q00987 whole entry): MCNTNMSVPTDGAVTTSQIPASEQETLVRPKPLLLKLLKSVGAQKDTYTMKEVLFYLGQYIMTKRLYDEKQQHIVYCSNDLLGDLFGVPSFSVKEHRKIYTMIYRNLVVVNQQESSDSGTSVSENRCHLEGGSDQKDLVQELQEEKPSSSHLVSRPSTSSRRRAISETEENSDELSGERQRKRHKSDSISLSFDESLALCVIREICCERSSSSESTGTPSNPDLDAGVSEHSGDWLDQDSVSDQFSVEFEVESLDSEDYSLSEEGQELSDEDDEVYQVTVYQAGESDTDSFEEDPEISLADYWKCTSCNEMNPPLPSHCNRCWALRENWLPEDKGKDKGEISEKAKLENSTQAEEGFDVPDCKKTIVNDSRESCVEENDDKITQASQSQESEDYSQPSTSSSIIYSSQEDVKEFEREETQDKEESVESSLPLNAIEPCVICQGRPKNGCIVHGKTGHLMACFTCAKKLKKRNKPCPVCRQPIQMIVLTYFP
Compound,IC50 [1],IC50 [2],inhibitory effect on MDM2 compared with positive control compound HDM201 [1],inhibitory effect on human osteosarcoma cell line SJSA-1 compared with positive control compound HDM201 [2]
"COc1cc(OC(F)(F)F)ccc1-c1nc2c(n1C(C)C)[C@]1(C(=O)Nc3cc(Cl)ccc31)N(c1cc(Cl)ccc1C)C2=O [Example R-87, (R)-6-chloro-5′-(5-chloro-2-methylphenyl)-3′-isopropyl-2′-(2-methoxy-4-(trifluoromethoxy)phenyl)-3′H-spiro[dihydroindole-3,4′-pyrrolo[3,4-d]imidazole]-2,6′(5′H)-dione]",473 nM,7350 nM,–,–
"COc1ccc(C)cc1-c1nc2c(n1C(C)C)[C@@]1(C(=O)Nc3cc(Cl)ccc31)N(c1cc(Cl)ccc1C)C2=O [Example S-62, (S)-6-chloro-5′-(5-chloro-2-methylphenyl)-3′-isopropyl-2′-(2-methoxy-5-methylphenyl)-3′H-spiro[dihydroindole-3,4′-pyrrolo[3,4-d]imidazole]-2,6′(5′H)-dione]",1.61 nM,10.5 nM,–,–
"Cc1ccc(Cl)cc1N1C(=O)c2nc(-c3ccccc3OC(F)F)n(C(C)C)c2[C@@]12C(=O)Nc1cc(Cl)ccc12 [Example S-30, (S)-6-chloro-5′-(5-chloro-2-methylphenyl)-2′-(2-(difluoromethoxy)phenyl)-3′-isopropyl-3′H-spiro[dihydroindole-3,4′-pyrrolo[3,4-d]imidazole]-2,6′(5′H)-dione]",3.31 nM,58.1 nM,–,–
"CCN(C)c1ccc(-c2nc3c(n2C(C)C)[C@]2(C(=O)Nc4cc(Cl)ccc42)N(c2cc(Cl)ccc2C)C3=O)c(OC)c1 [Example R-99, (R)-6-chloro-5′-(5-chloro-2-methylphenyl)-2′-(4-(ethyl(methyl)amino)-2-methoxyphenyl)-3′-isopropyl-3′H-spiro[dihydroindole-3,4′-pyrrolo[3,4-d]imidazole]-2,6′(5′H)-dione]",115 nM,1470 nM,–,–
"COc1cc(OC)c(-c2nc3c(n2C(C)C)[C@]2(C(=O)Nc4cc(Cl)ccc42)N(c2cc(Cl)ccc2C)C3=O)cn1 [Example R-11, (R)-6-chloro-5′-(5-chloro-2-methylphenyl)-2′-(4,6-dimethoxypyridin-3-yl)-3′-isopropyl-3′H-spiro[dihydroindole-3,4′-pyrrolo[3,4-d]imidazole]-2,6′(5′H)-dione]",257 nM,1510 nM,–,–
"COc1cc(N)ccc1-c1nc2c(n1C(C)C)[C@@]1(C(=O)Nc3cc(Cl)ccc31)N(c1cc(Cl)ccc1C)C2=O [Example S-49, (S)-2′-(4-amino-2-methoxyphenyl)-6-chloro-5′-(5-chloro-2-methylphenyl)-3′-isopropyl-3′H-spiro[dihydroindole-3,4′-pyrrolo[3,4-d]imidazole]-2,6′(5′H)-dione]",1.72 nM,5.92 nM,–,–
"COc1cc(OCCF)ncc1-c1nc2c(n1C(C)C)[C@@]1(C(=O)Nc3cc(Cl)ccc31)N(c1cccc(Cl)c1)C2=O [Example S-177, (S)-6-chloro-5′-(3-chlorophenyl)-2′-(6-(2-fluoroethoxy)-4-methoxypyridin-3-yl)-3′-isopropyl-3′H-spiro[dihydroindole-3,4′-pyrrolo[3,4-d]imidazole]-2,6′(5′H)-dione]",2.37 nM,421 nM,–,–
"COc1cc(N)c(F)cc1-c1nc2c(n1C(C)C)C1(C(=O)Nc3cc(Cl)ccc31)N(c1cc(Cl)ccc1C)C2=O (centres unmarked) [Example 75, 2′-(4-amino-5-fluoro-2-methoxyphenyl)-6-chloro-5′-(5-chloro-2-methylphenyl)-3′-isopropyl-3′H-spiro[dihydroindole-3,4′-pyrrolo[3,4-d]imidazole]-2,6′(5′H)-dione]",–,–,better,better
"COc1cc(OC)c(-c2nc3c(n2C(C)C)C2(C(=O)Nc4cc(Cl)ccc42)N(c2cccc(Cl)c2)C3=O)cn1 (centres unmarked) [Example 115, 6-chloro-5′-(3-chlorophenyl)-2′-(4,6-dimethoxypyridin-3-yl)-3′-isopropyl-3′H-spiro[dihydroindole-3,4′-pyrrolo[3,4-d]imidazole]-2,6′(5′H)-dione]",–,–,better,better
"COc1cc(C(F)(F)F)ncc1-c1nc2c(n1C(C)C)[C@@]1(C(=O)Nc3cc(Cl)ccc31)N(c1cccc(Cl)c1)C2=O [Example S-142, (S)-6-chloro-5′-(3-chlorophenyl)-3′-isopropyl-2′-(4-methoxy-6-(trifluoromethyl)pyridin-3-yl)-3′H-spiro[dihydroindole-3,4′-pyrrolo[3,4-d]imidazole]-2,6′(5′H)-dione]",1.45 nM,138 nM,–,–
"COc1cc(OC(C)C)ncc1-c1nc2c(n1C(C)C)[C@]1(C(=O)Nc3cc(Cl)ccc31)N(c1cc(Cl)ccc1C)C2=O [Example R-69, (R)-6-chloro-5′-(5-chloro-2-methylphenyl)-2′-(6-isopropoxy-4-methoxypyridin-3-yl)-3′-isopropyl-3′H-spiro[dihydroindole-3,4′-pyrrolo[3,4-d]imidazole]-2,6′(5′H)-dione]",636 nM,6580 nM,–,–
"CCOc1ccc(-c2nc3c(n2C(C)C)[C@@]2(C(=O)Nc4cc(Cl)ccc42)N(c2cc(Cl)ccc2F)C3=O)c(OC)c1 [Example S-94, (S)-6-chloro-5′-(5-chloro-2-fluorophenyl)-2′-(4-ethoxy-2-methoxyphenyl)-3′-isopropyl-3′H-spiro[dihydroindole-3,4′-pyrrolo[3,4-d]imidazole]-2,6′(5′H)-dione]",4.72 nM,309 nM,–,–
"COc1c(F)cccc1-c1nc2c(n1C(C)C)[C@@]1(C(=O)Nc3cc(Cl)ccc31)N(c1cc(Cl)ccc1C)C2=O [Example S-76, (S)-6-chloro-5′-(5-chloro-2-methylphenyl)-2′-(3-fluoro-2-methoxyphenyl)-3′-isopropyl-3′H-spiro[dihydroindole-3,4′-pyrrolo[3,4-d]imidazole]-2,6′(5′H)-dione]",4.23 nM,309 nM,–,–
"COc1ccc(-c2nc3c(n2C(C)C)[C@]2(C(=O)Nc4cc(Cl)ccc42)N(c2cc(Cl)ccc2C)C3=O)c(OC)c1 [Example R-9, (R)-6-chloro-5′-(5-chloro-2-methylphenyl)-2′-(2,4-dimethoxyphenyl)-3′-isopropyl-3′H-spiro[dihydroindole-3,4′-pyrrolo[3,4-d]imidazole]-2,6′(5′H)-dione]",332 nM,2820 nM,–,–
"COc1cc(OC(F)F)ncc1-c1nc2c(n1C(C)C)[C@@]1(C(=O)Nc3cc(Cl)ccc31)N(c1cc(Cl)ccc1C)C2=O [Example S-150, (S)-6-chloro-5′-(5-chloro-2-methylphenyl)-2′-(6-(difluoromethoxy)-4-methoxypyridin-3-yl)-3′-isopropyl-3′H-spiro[dihydroindole-3,4′-pyrrolo[3,4-d]imidazole]-2,6′(5′H)-dione]",1.93 nM,80.5 nM,–,–
"COc1ccc(-c2nc3c(n2C(C)C)[C@@]2(C(=O)Nc4cc(Cl)ccc42)N(c2cc(Cl)ccc2F)C3=O)c(OC)c1 [Example S-80, (S)-6-chloro-5′-(5-chloro-2-fluorophenyl)-2′-(2,4-dimethoxyphenyl)-3′-isopropyl-3′H-spiro[dihydroindole-3,4′-pyrrolo[3,4-d]imidazole]-2,6′(5′H)-dione]",2.56 nM,16.9 nM,–,–
